Series [1] deals with human liver microsomes. To be noted: cited from earlier work.
For series [2], the system named is human cryopreserved hepatocytes. Kind of series: Stability in human cryopreserved hepatocytes with or without CYP1A2 inhibitors (assays 1 to 3). As to conditions: for decrease of flubendazole metabolism in the presence of the inhibitor: cryopreserved human hepatocytes, 1 µM flubendazole, over all inhibitor concentrations tested; for class of CYP1A2 inhibitor of flubendazole metabolism: human hepatocytes ex vivo. On the procedure: (§1) In each assay, the amount of test compound remaining at each time point was analysed by LC-MS/MS.
(§2) The final incubation volume was 500 µL. […] A positive control compound, ethoxycoumarin, for CYP1A2 (as CYP1A2 substrate) was included. […] The reactions were stopped by transferring 50 µL of incubate to 100 µL acetonitrile containing internal standard at the appropriate time points (0, 5, 10, 20, 40 and 60 min). The termination plates were centrifuged at 2500 rpm at 4° C. for 30 min to precipitate the protein.
(§3) From a plot of In peak area ratio (compound peak area/internal standard peak area) against time, the gradient of the line was determined. Subsequently, half-life (t½) and intrinsic clearance (CLint) were calculated using the equations below: […]

The conditions of series [3]: humans, cited from earlier work.
Series [4] is described as follows: in vitro. As to conditions: human, hepatocytes; for half-life at 1 µM: t½. On the procedure:
as §1, §2, §3

The values that follow come from patent US20230301968A1 (ZEPHAPHARM LTD, priority 2020, published 2023).

Read-outs that look alike come from different tables or passages of the source.

For the molecule `CCC[S+]([O-])c1ccc2[nH]c(NC(=O)OC)nc2c1` (stereo not drawn) [Ricobendazole, albendazole sulfoxide], the “turnover in human liver microsomes” value in series [1] is “low turnover”.
For the molecule `Cc1nc2c([nH]1)c(=O)n(C)c(=O)n2Cc1ccco1` [Furafylline, furafylline], in series [2], the “decrease of flubendazole metabolism in the presence of the inhibitor” value is on record as “at least 4.2 fold” and the “class of CYP1A2 inhibitor of flubendazole metabolism” value is “strong (inhibits intrinsic clearance (CLint) of flubendazole in human hepatocytes ex vivo by ≥five-fold)”. For the same molecule, the “increase in elimination half-life of caffeine” value in series [3] (Tarrus et al., 1987) is recorded as 7-10 fold.
Consider `COCCCC/C(=N\OCCN)c1ccc(C(F)(F)F)cc1` [Fluvoxamine, fluvoxamine], for which, in series [2], the “decrease of flubendazole metabolism in the presence of the inhibitor” value is “at least 2.2 fold” and the “class of CYP1A2 inhibitor of flubendazole metabolism” value is listed as “strong (inhibits intrinsic clearance (CLint) of flubendazole in human hepatocytes ex vivo by ≥five-fold)”.
For `O=c1ccc2ccc(O)cc2o1` [Umbelliferone, umbelliferone], the hepatocyte CLint at 1 µM in series [4] (CLint) was 136 ± 8.14 µL/min/1e6 cells. The molecule further displayed a hepatocyte CLint at 1 µM in series [4] (intrinsic clearance) of 129 ± 2.93 µL/min/1e6 cells. Further, in series [4], the half-life at 1 µM came to 10.2 min. In series [2] (human, hepatocytes, 1 µM), this molecule registered a CLint of 131±9.59 µL/min/10^6 cells and a t½ of 10.5 min.
Consider `Cn1c(=O)c2c(ncn2C)n(C)c1=O` [caffeine], for which the elimination half-life in series [3] (with furafylline) is 50 h; in series [3] (without furafylline) it was 5 to 7 h.
For `CCOc1ccc2ccc(=O)oc2c1`, the hepatocyte CLint at 1 µM in series [4] (CLint) came to 25.4 µL/min/1e6 cells. In addition, the half-life at 1 µM in series [4] amounted to 54.5 min.
